Assay results published in ChEMBL document CHEMBL4673385, “Discovery of Potent Inhibitors of Streptococcus mutans Biofilm with Antivirulence Activity” (ACS Med Chem Lett, 2021).
pIC50: −log10 of the molar value. Values after ≈ are worked out from the molar mass of the structure shown. Active and inactive are the calls of the source. The rule behind the calls is not given here.

Columns and labels:
Streptococcus mutans [1] = assay: Antibiofilm activity against Streptococcus mutans UA159 assessed as inhibition of biofilm formation by serial dilution method; assay type: functional, organism-based; conditions: for pIC50: Streptococcus mutans, UA159, read-out: IC50
Streptococcus mutans [2] = assay: Bactericidal activity against Streptococcus mutans UA159 assessed as reduction in bacterial growth at 100 uM after 24 hrs; assay type: functional, organism-based
[3] = Solubility of compound in water; assay type: physicochemical

Row | SMILES | IC50 (Streptococcus mutans [1]) | Activity (Streptococcus mutans [2]) | solubility ([3]; buffer) | pIC50 (Streptococcus mutans [1]) | solubility ([3]; water, read-out: solubility)
1 | NC(=O)c1ccccc1NC(=O)c1cc2cc([N+](=O)[O-])ccc2[nH]1 | Nd(Insoluble) | inactive | Insoluble |  | 
2 | COc1ccc2[nH]c(C(=O)Nc3ccc(C(N)=O)cc3)cc2c1 |  | inactive |  | < 3.52 | 
3 | COC(=O)c1ccc(NC(=O)c2cc3cc([N+](=O)[O-])ccc3[nH]2)cc1 | Nd(Insoluble) | inactive | Insoluble |  | 
4 | COC(=O)c1ccc(NC(=O)c2ccc3ccccc3c2)cc1 |  | inactive |  | 3.95 | 25 µg/mL (≈ 81.9 µM)
5 | CC(C)(C)OC(=O)NCc1ccccc1NC(=O)c1ccc(-c2ccccc2)cc1 |  | inactive |  | 3.91 | < 5 µg/mL
6 | NC(=O)c1ccc(NC(=O)c2cnc3ccccc3c2)cc1 |  | inactive |  | < 3.52 | 
7 | O=C(Nc1ccccc1)c1cc2cc([N+](=O)[O-])ccc2o1 |  | inactive |  | < 3.52 | 25 µg/mL (≈ 88.6 µM)
8 | NC(=O)c1cccc(NC(=O)c2ccc3ccccc3c2)c1 |  | inactive |  | 3.62 | < 5 µg/mL
9 | COC(=O)c1cccc(NC(=O)c2cnc3ccccc3c2)c1 |  | inactive |  |  | 
10 | NCc1ccccc1NC(=O)c1cc2cc([N+](=O)[O-])ccc2[nH]1 |  | inactive |  |  | 
11 | NCc1ccccc1NC(=O)c1cc2cc([N+](=O)[O-])ccc2o1 |  | inactive |  | 4.01 | 5 µg/mL (≈ 16.1 µM)
12 | NC(=O)c1ccccc1NC(=O)c1ccc(-c2ccccc2)cc1 |  | inactive |  | 3.71 | 5 µg/mL (≈ 15.8 µM)
13 | COC(=O)c1cccc(NC(=O)c2cc3cc([N+](=O)[O-])ccc3s2)c1 |  | inactive |  | 4.26 | 25 µg/mL (≈ 70.2 µM)
14 | COC(=O)c1cccc(NC(=O)c2ccc3ccccc3c2)c1 |  | inactive |  | < 3.52 | 5 µg/mL (≈ 16.4 µM)
15 | NC(=O)c1ccc(NC(=O)c2cc3ccccc3s2)cc1 |  | inactive |  | 4.34 | 25 µg/mL (≈ 84.4 µM)
16 | COC(=O)c1ccc(NC(=O)c2cccc3ccccc23)cc1 |  | inactive |  | < 3.52 | 
17 | CC(C)(C)OC(=O)NCc1ccccc1NC(=O)c1ccc2ccccc2n1 |  | inactive |  | 4.17 | < 5 µg/mL
18 | NC(=O)c1cccc(NC(=O)c2cc3cc([N+](=O)[O-])ccc3s2)c1 |  | inactive |  | 4.37 | 25 µg/mL (≈ 73.2 µM)
19 | COC(=O)c1ccc(NC(=O)c2cc3cc(OC)ccc3[nH]2)cc1 | Nd(Insoluble) | inactive | Insoluble |  | 

Row | SMILES | IC50 (Streptococcus mutans [1]) | Activity (Streptococcus mutans [2]) | solubility ([3]; buffer) | pIC50 (Streptococcus mutans [1]) | solubility ([3]; water, read-out: solubility)
20 | O=C(Nc1ccccc1)c1cc2cc([N+](=O)[O-])ccc2[nH]1 | Nd(Insoluble) | inactive | Insoluble |  | 
21 | COc1ccc2[nH]c(C(=O)Nc3cccc(C(N)=O)c3)cc2c1 |  | inactive |  | 4.25 | 5 µg/mL (≈ 16.2 µM)
22 | NC(=O)c1cccc(NC(=O)c2cccc3ccccc23)c1 |  | inactive |  |  | 10 µg/mL (≈ 34.4 µM)
23 | NC(=O)c1ccc(NC(=O)c2cc3cc([N+](=O)[O-])ccc3s2)cc1 |  | inactive |  | < 3.52 | 
24 | NC(=O)c1cccc(NC(=O)c2ccc(-c3ccccc3)cc2)c1 |  | inactive |  | 4.10 | 25 µg/mL (≈ 79 µM)
25 | COC(=O)c1cccc(NC(=O)c2ccc3ccccc3n2)c1 |  | inactive |  | 4.03 | 25 µg/mL (≈ 81.6 µM)
26 | NC(=O)c1ccc(NC(=O)c2ccc3ccccc3n2)cc1 |  | inactive |  | 4.26 | 5 µg/mL (≈ 17.2 µM)
27 | NC(=O)c1ccccc1NC(=O)c1cc2ccccc2s1 |  | inactive |  | 4.34 | < 5 µg/mL
28 | NC(=O)c1ccc(NC(=O)c2cccc3ccccc23)cc1 |  | inactive |  |  | < 5 µg/mL
29 | NCc1ccccc1NC(=O)c1cc2cc([N+](=O)[O-])ccc2s1 |  | inactive |  |  | 1000 µg/mL (≈ 3050 µM)
30 | NC(=O)c1ccc(NC(=O)c2cc3cc([N+](=O)[O-])ccc3o2)cc1 |  | inactive |  | < 3.52 | 
31 | O=C(Nc1ccccc1)c1ccc2ccccc2c1 |  | inactive |  | < 3.52 | 
32 | COC(=O)c1ccc(NC(=O)c2cc3cc([N+](=O)[O-])ccc3o2)cc1 |  | inactive |  |  | 20 µg/mL (≈ 58.8 µM)
33 | COC(=O)c1cccc(NC(=O)c2ccc(-c3ccccc3)cc2)c1 |  | inactive |  | 3.98 | < 5 µg/mL
34 | COC(=O)c1ccccc1NC(=O)c1cc2cc([N+](=O)[O-])ccc2o1 |  | inactive |  | 4.15 | 25 µg/mL (≈ 73.5 µM)
35 | COC(=O)c1ccccc1NC(=O)c1cc2cc(OC)ccc2[nH]1 | Nd(Insoluble) | inactive | Insoluble |  | 
36 | NCc1ccccc1NC(=O)c1ccc2ccccc2n1 |  | inactive |  | 3.69 | 25 µg/mL (≈ 90.1 µM)
37 | NCc1ccccc1NC(=O)c1cccc2ccccc12 |  | inactive |  | 3.65 | 25 µg/mL (≈ 90.5 µM)
38 | NC(=O)c1ccccc1NC(=O)c1ccc2ccccc2n1 |  | inactive |  | 3.78 | 10 µg/mL (≈ 34.3 µM)

Row | SMILES | IC50 (Streptococcus mutans [1]) | Activity (Streptococcus mutans [2]) | solubility ([3]; buffer) | pIC50 (Streptococcus mutans [1]) | solubility ([3]; water, read-out: solubility)
39 | COC(=O)c1ccccc1NC(=O)c1ccc(-c2ccccc2)cc1 |  | inactive |  | < 3.52 | 
40 | NC(=O)c1ccccc1NC(=O)c1cc2cc([N+](=O)[O-])ccc2o1 |  | inactive |  |  | 5 µg/mL (≈ 15.4 µM)
41 | COC(=O)c1ccccc1NC(=O)c1cc2cc([N+](=O)[O-])ccc2s1 |  | inactive |  | < 3.52 | 
42 | CC(C)(C)OC(=O)NCc1ccccc1NC(=O)c1ccc2ccccc2c1 |  | inactive |  | 4.25 | 
43 | NCc1ccccc1NC(=O)c1cnc2ccccc2c1 |  | inactive |  |  | 5 µg/mL (≈ 18 µM)
44 | O=C(Nc1ccccc1)c1cccc2ccccc12 |  | inactive |  | < 3.52 | 
45 | NC(=O)c1cccc(NC(=O)c2cc3ccccc3s2)c1 |  | inactive |  |  | < 5 µg/mL
46 | NCc1ccccc1NC(=O)c1ccc2ccccc2c1 |  | inactive |  |  | 
47 | NC(=O)c1cccc(NC(=O)c2ccc3ccccc3n2)c1 |  | inactive |  |  | 10 µg/mL (≈ 34.3 µM)
48 | COC(=O)c1ccccc1NC(=O)c1cc2ccccc2s1 |  | inactive |  | < 3.52 | 
49 | NCc1ccccc1NC(=O)c1cc2ccccc2s1 |  | inactive |  | 3.78 | 
50 | NCc1ccccc1NC(=O)c1ccc(-c2ccccc2)cc1 |  | inactive |  | 3.71 | 
51 | COC(=O)c1cccc(NC(=O)c2cc3ccccc3s2)c1 |  | inactive |  |  | 
52 | O=C(Nc1ccccc1)c1ccc(-c2ccccc2)cc1 |  | inactive |  | < 3.52 | 
53 | O=C(Nc1ccccc1)c1cc2ccccc2s1 |  | inactive |  | < 3.52 | 
54 | COC(=O)c1ccccc1NC(=O)c1ccc2ccccc2c1 |  | inactive |  |  | 25 µg/mL (≈ 81.9 µM)
55 | NC(=O)c1ccccc1NC(=O)c1cccc2ccccc12 |  | inactive |  | 3.82 | 
56 | COC(=O)c1ccc(NC(=O)c2ccc3ccccc3n2)cc1 |  | inactive |  |  | 25 µg/mL (≈ 81.6 µM)
57 | COC(=O)c1ccc(NC(=O)c2ccc(-c3ccccc3)cc2)cc1 |  | inactive |  | < 3.52 | 
